Results: patent publication US11492335B2, “Aryl or heteroaryl triazolone derivatives or salts thereof, or pharmaceutical compositions comprising the same” (YUHAN CORPORATION, priority 2018, dated 2022)
Where a name gives a salt, the structure may show the parent alone. Read-outs that look alike come from different tables or passages of the source.

Experiments:
Format in all cases: biochemical
recombinant human VAP-1 = molecular target: T1, recombinant human VAP-1 (Homo sapiens, UniProt Q16853); assay: Activity on recombinant human VAP-1, Amplex Red HRP-coupled hydrogen peroxide assay, benzylamine substrate; details: recombinant human VAP-1, benzylamine substrate, read-out: Inhibitory Activity (IC50, nM) human VAP-1
T1 construct: purchased R&D systems
T1 sequence (Q16853 1-763): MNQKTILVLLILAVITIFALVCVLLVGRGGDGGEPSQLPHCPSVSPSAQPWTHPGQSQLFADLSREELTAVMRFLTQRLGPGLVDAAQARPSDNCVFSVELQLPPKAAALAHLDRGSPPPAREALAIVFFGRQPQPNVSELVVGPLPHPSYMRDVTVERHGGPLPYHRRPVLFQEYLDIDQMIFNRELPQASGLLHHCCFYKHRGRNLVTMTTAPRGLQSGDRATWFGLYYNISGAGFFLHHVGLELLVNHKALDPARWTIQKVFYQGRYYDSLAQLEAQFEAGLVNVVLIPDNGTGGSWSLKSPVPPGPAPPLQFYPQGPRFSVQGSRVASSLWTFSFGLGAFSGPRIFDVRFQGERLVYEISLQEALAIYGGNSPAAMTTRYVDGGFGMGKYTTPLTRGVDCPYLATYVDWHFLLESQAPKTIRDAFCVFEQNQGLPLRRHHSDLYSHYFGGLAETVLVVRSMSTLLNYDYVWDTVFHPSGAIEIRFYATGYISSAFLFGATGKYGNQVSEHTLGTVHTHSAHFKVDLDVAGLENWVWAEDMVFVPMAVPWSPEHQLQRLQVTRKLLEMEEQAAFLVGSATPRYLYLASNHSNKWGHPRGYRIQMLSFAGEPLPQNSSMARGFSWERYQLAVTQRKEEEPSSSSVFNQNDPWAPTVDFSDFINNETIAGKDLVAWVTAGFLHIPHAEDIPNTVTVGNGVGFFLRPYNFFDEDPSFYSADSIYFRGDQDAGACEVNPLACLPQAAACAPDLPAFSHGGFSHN
Procedure, shortened: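 Compounds were preincubated with purified enzyme in 50 mM sodium phosphate pH 7.4 at 37 °C for 30 min, then 200 uM Amplex Red, 1 mM benzylamine and 1 U/mL HRP were added. Resorufin fluorescence (ex 544/em 590 nm) was followed over 1-2 h; IC50 came from 4-parameter fits of signal-rate inhibition.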

[1] = molecular target: T2, recombinant human MAO-A (monoamine oxidase-A) (Homo sapiens, UniProt P21397); assay: Activity on recombinant human MAO-A, Amplex Red method, 0.5 mM tyramine substrate; details: read-out: Inhibitory Activity (IC50, nM) MAO-A
T2 construct: purchased Sigma-Aldrich
T2 sequence (P21397 1-527): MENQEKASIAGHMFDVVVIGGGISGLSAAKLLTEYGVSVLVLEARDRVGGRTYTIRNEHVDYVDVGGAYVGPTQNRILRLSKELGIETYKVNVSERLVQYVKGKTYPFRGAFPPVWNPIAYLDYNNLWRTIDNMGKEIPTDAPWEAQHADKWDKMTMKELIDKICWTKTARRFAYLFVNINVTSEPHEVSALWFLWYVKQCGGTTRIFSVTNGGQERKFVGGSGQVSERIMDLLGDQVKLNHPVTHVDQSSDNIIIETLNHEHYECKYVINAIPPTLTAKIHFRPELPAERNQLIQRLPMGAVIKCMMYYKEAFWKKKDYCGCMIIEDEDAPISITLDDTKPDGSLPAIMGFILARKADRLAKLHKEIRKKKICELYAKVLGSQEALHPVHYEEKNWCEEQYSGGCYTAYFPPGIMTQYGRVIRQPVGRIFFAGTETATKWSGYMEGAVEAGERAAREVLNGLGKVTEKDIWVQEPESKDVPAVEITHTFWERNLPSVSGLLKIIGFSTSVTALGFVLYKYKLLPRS
Procedure, shortened: (§1)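 8-point, 1:3 dose-response, four-parameter logistic IC50 from reduction in fluorescence rate versus DMSO control. HRP/Amplex Red detection of H2O2 (ex 544, em 590 nm) after 30 min, 37 °C compound–enzyme preincubation in pH 7.4 phosphate buffer. MAO-A substrate: 0.5 mM tyramine; MAO-B: 1 mM benzylamine.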

[2] = molecular target: T3, recombinant human DAO (diamine oxidase) (Homo sapiens, UniProt P19801); assay: Activity on recombinant human DAO, Amplex Red method, 1 mM putrescine substrate; details: recombinant human DAO, read-out: Inhibitory Activity (IC50, nM) DAO
T3 construct: purchased R&D systems
T3 sequence (P19801 20-751): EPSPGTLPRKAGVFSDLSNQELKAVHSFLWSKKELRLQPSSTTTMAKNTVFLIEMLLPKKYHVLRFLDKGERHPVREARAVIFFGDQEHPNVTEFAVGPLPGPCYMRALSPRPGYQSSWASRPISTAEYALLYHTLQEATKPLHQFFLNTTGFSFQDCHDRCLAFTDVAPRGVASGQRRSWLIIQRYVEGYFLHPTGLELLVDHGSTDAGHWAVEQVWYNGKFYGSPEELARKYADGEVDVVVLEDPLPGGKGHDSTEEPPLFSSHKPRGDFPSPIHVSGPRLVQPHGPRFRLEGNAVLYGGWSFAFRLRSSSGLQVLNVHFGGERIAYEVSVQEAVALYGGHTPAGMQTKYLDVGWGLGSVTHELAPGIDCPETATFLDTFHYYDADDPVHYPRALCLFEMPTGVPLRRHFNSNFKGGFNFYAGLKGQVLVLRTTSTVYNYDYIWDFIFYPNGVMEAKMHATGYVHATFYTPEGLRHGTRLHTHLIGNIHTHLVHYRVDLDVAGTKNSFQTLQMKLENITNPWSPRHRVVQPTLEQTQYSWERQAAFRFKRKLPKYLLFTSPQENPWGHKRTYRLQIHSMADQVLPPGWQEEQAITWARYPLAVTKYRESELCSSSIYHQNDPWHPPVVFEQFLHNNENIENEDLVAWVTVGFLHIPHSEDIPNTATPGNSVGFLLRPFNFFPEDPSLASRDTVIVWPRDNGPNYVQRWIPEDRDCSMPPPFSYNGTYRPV
Procedure, shortened: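 Inhibition of recombinant human DAO (diamine oxidase, R&D systems) was assessed with the Amplex Red Hydrogen Peroxide Assay Kit. Hydrogen peroxide produced from 1 mM putrescine was detected through an HRP-coupled reaction that converts Amplex Red into fluorescent resorufin, read at 544 nm excitation and 590 nm emission. IC50 values came from four-parameter logistic fits in GraphPad Prism.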

[3] = molecular target: T4, recombinant human MAO-B (monoamine oxidase-B) (Homo sapiens, UniProt P27338); assay: Activity on recombinant human MAO-B, Amplex Red method, 1 mM benzylamine substrate; details: read-out: Inhibitory Activity (IC50, nM) MAO-B
T4 construct: purchased Sigma-Aldrich
T4 sequence (P27338 1-520): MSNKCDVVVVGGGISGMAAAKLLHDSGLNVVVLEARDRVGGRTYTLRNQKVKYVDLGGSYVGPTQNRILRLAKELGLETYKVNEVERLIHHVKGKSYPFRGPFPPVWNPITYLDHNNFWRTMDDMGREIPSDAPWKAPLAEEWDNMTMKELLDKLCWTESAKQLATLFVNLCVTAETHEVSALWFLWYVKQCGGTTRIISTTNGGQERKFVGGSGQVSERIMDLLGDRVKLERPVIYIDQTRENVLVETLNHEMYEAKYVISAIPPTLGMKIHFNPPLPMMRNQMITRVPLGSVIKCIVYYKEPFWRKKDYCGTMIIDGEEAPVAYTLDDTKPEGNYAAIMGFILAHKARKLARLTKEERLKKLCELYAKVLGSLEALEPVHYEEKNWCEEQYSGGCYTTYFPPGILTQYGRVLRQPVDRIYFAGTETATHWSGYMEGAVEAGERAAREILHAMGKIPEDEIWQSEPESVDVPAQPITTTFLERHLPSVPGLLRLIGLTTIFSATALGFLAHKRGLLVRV
Procedure, shortened: as §1

[4] = 1 mM putrescine, * = between 10 and 100 nM, ** = between 300 and 1000 nM

IC50 (recombinant human VAP-1; 30 min preincubation at 37° C.) [nM] | IC50 ([1]; 0.5 mM tyramine) [nM] | IC50 [2, 4] [nM] | IC50 ([3]; 1 mM benzylamine) [nM] | IC50 (recombinant human VAP-1) [nM] | IC50 ([1]; 0.5 mM tyramine substrate) [nM] | IC50 ([2]; 1 mM putrescine substrate) [nM] | IC50 ([3]; 1 mM benzylamine substrate) [nM] | SMILES
0.55 | > 10000 | 450 | > 10000 |  |  |  |  | CC(=O)Nc1cc(-c2cnc(-n3cnn(C/C(=C/F)CN)c3=O)c(C)c2)ccn1 [Example 147, (E)-N-(6-(1-(2-(aminomethyl)-3-fluoroallyl)-5-oxo-1,5-dihydro-4H-1,2,4-triazol-4-yl)-5-methyl-[3,4′-bipyridin]-2′-yl)acetamide hydrochloride]
0.4 | 160000 | 35 | > 10000 |  |  |  |  | Cc1cc(-c2ccc(C(F)(F)F)nc2)cnc1-n1cnn(C/C(=C/F)CN)c1=O [Example 148, 2-[(2E)-2-(aminomethyl)-3-fluoroprop-2-en-1-yl]-4-[5-methyl-6′-(trifluoromethyl)-3,3′-bipyridin-6-yl]-2,4-dihydro-3H-1,2,4-triazol-3-one hydrochloride]
0.5 | > 100000 | 490 | > 10000 |  |  |  |  | Cc1cc(-c2ccc(N3CCOCC3)nc2)cnc1-n1cnn(C/C(=C/F)CN)c1=O [Example 149, 2-[(2E)-2-(aminomethyl)-3-fluoroprop-2-en-1-yl]-4-[5-methyl-6′-(morpholin-4-yl)-3,3′-bipyridin-6-yl]-2,4-dihydro-3H-1,2,4-triazol-3-one hydrochloride]
0.35 | 4800 | 480 | 170 |  |  |  |  | Cc1cc(-c2ccc3c(c2)OCO3)cnc1-n1cnn(C/C(=C/F)CN)c1=O [Example 150, 2-[(2E)-2-(aminomethyl)-3-fluoroprop-2-en-1-yl]-4-[5-(2H-1,3-benzodioxol-5-yl)-3-methylpyridin-2-yl]-2,4-dihydro-3H-1,2,4-triazol-3-one hydrochloride]
 |  |  |  | 0.52 | > 10000 | 98 | > 10000 | Cc1cc(-c2ccc3c(c2)NC(=O)C3)cnc1-n1cnn(C/C(=C/F)CN)c1=O [Example 151, 6-(6-{1-[(2E)-2-(aminomethyl)-3-fluoroprop-2-en-1-yl]-5-oxo-1,5-dihydro-4H-1,2,4-triazol-4-yl}-5-methylpyridin-3-yl)-1,3-dihydro-2H-indol-2-one]
 |  |  |  | 0.5 | 7420 | 1300 | 314 | Cc1cc(-c2ccc3nonc3c2)cnc1-n1cnn(C/C(=C/F)CN)c1=O [Example 152, 2-[(2E)-2-(aminomethyl)-3-fluoroprop-2-en-1-yl]-4-[5-(2,1,3-benzooxadiazol-5-yl)-3-methylpyridin-2-yl]-2,4-dihydro-3H-1,2,4-triazol-3-one hydrochloride]
 |  |  |  | 0.39 | 96000 | 640 | 703 | Cc1cc(-c2ccc3cn[nH]c3c2)cnc1-n1cnn(C/C(=C/F)CN)c1=O [Example 153, 2-[(2E)-2-(aminomethyl)-3-fluoroprop-2-en-1-yl]-4-[5-(1H-indazol-6-yl)-3-methylpyridin-2-yl]-2,4-dihydro-3H-1,2,4-triazol-3-one]
 |  |  |  | 0.3 | > 100000 | 190 | 3000 | Cc1cc(-c2cc(C)c3c(c2)CCC(=O)N3)cnc1-n1cnn(C/C(=C/F)CN)c1=O [Example 154, 6-(6-{1-[(2E)-2-(aminomethyl)-3-fluoroprop-2-en-1-yl]-5-oxo-1,5-dihydro-4H-1,2,4-triazol-4-yl}-5-methylpyridin-3-yl)-8-methyl-3,4-dihydroquinolin-2(1H)-one hydrochloride]
 |  |  |  | 0.3 | 16000 | 87 | 4400 | Cc1cc(-c2ccc3c(c2)NC(=O)CO3)cnc1-n1cnn(C/C(=C/F)CN)c1=O [Example 155, 6-(6-{1-[(2E)-2-(aminomethyl)-3-fluoroprop-2-en-1-yl]-5-oxo-1,5-dihydro-4H-1,2,4-triazol-4-yl}-5-methylpyridin-3-yl)-2H-1,4-benzoxazin-3 (4H)-one hydrochloride]
 |  |  |  | 0.3 | > 100000 | 38 | 26000 | Cc1cc(-c2ccc3c(c2)NC(=O)OC3)cnc1-n1cnn(C/C(=C/F)CN)c1=O [Example 156, 7-(6-{1-[(2E)-2-(aminomethyl)-3-fluoroprop-2-en-1-yl]-5-oxo-1,5-dihydro-4H-1,2,4-triazol-4-yl}-5-methylpyridin-3-yl)-1,4-dihydro-2H-3,1-benzoxazin-2-one hydrochloride]
 |  |  |  | 0.3 | > 100000 | < 100 | 3790 | Cc1cc(-n2cnn(C/C(=C/F)CN)c2=O)ncc1-c1ccc(-c2nc[nH]n2)cc1 [Example 157, 2-[(2E)-2-(aminomethyl)-3-fluoroprop-2-en-1-yl]-4-{4-methyl-5-[4-(1H-1,2,4-triazol-3-yl)phenyl]pyridin-2-yl}-2,4-dihydro-3H-1,2,4-triazol-3-one]
